Data published in patent US9388162B2, “Substituted morphinans and the use thereof” (Purdue Pharma L.P., priority 2012, dated 2016).

Key:
Format in all cases: biochemical
μ-opioid receptors [1] = biological target: T1, μ-opioid receptors (Homo sapiens (Human), UniProt P35372); test: μ-opioid receptor [35S]GTPγS functional assay, HEK-293 cells; conditions: μ GTP; for EC50: read-out: Activity Response μ EC50 (nM) [mean ± SEM]; for Emax: relative to DAMGO, read-out: Activity Response μ Emax (%)
Description: (§1) [^35S]GTPγS functional assays were conducted using freshly thawed μ-receptor membranes prepared from a cell line expressing recombinant μ opioid receptor in a HEK-293, CHO or U-2 OS cell background or purchased from a commercial source (Perkin Elmer, Shelton, Conn.; or DiscovRx, Fremont, Calif.). Assay reactions were prepared by sequentially adding the following reagents to binding buffer (100 mM NaCl, 10 mM MgCl2, 20 mM HEPES, pH 7.4) on ice (final concentrations indicated): membrane protein (0.026 mg/mL), saponin ([…]), GDP ([…]) and [^35S]GTPγS (0.20 nM; Perkin Elmer, Shelton, Conn.). The prepared membrane solution (190 μl/well) was transferred to 96-shallow well polypropylene plates containing 10 μl of 20× concentrated stock solutions of the agonist [D-Ala^2, N-methyl-Phe^4 Gly-ol^5]-enkephalin (DAMGO) prepared in dimethyl sulfoxide (DMSO). Plates were incubated for 30 min at about 25° C. with shaking. Reactions were terminated by rapid filtration onto 96-well Unifilter GF/B filter plates (Perkin Elmer, Shelton, Conn.) using a 96-well tissue harvester (Perkin Elmer, Shelton, Conn.) followed by three filtration washes with 200 μl of ice-cold wash buffer (10 mM NaH2PO4, 10 mM Na2HPO4, pH 7.4). Filter plates were subsequently dried at 50° C. for 2-3 hours. BetaScint scintillation cocktail (Perkin Elmer, Shelton, Conn.) was added (50 μl/well) and plates were counted using a Packard Top-Count for 1 min/well. Data were analyzed using the sigmoidal dose-response curve fitting functions in GraphPad PRISM v. 3.0, or an in-house function for non-linear, sigmoidal dose-response curve-fitting.
(§2) μ GTP EC50 is the concentration of a compound providing 50% of the maximal response for the compound at a μ-opioid receptor.
(§3) μ GTP Emax (%) is the maximal effect elicited by a compound relative to the effect elicited by DAMGO, a standard μ agonist. Generally, the μ GTP Emax (%) value measures the efficacy of a compound to treat or prevent pain or other Conditions.
(§4) The following tables provide results on the efficacy of binding and activity response of exemplified Compounds of the Invention at the μ- and κ-opioid receptors. In TABLE 3, binding affinity of certain Compounds of the Invention to the μ- and κ-opioid receptors was determined as described above. In TABLE 4, activity response of certain Compounds of the Invention to the μ- and κ-opioid receptors was determined as described above for functional assays using HEK-293 cells. In TABLE 5, activity response of certain Compounds of the Invention to the μ- and κ-opioid receptors was determined as described above using U-2 OS cells.

μ-opioid receptors [2] = biological target: T1, μ-opioid receptors; test: μ-opioid receptor [35S]GTPγS functional assay, U-2 OS cells; conditions: μ GTP; for EC50: read-out: Activity Response μ EC50 (nM) [mean ± SEM]; for Emax: relative to DAMGO, read-out: Activity Response μ Emax (%)
Description: as §1, §2, §3, §4

κ opioid receptor = κ opioid receptor (Homo sapiens (Human), UniProt P41145); test: κ-opioid receptor [35S]GTPγS functional assay, U-2 OS cells; conditions: κ GTP; for EC50: read-out: Activity Response κ EC50 (nM) [mean ± SEM]; for Emax: relative to U69,593, read-out: Activity Response κ Emax (%)
Description: Membranes from HEK-293 cells, CHO or U-2 OS cells expressing the recombinant human kappa opioid receptor (κ) were prepared by lysing cells in ice cold hypotonic buffer (2.5 mM MgCl2, 50 mM HEPES, pH 7.4) (10 mL/10 cm dish) followed by homogenization with a tissue grinder/Teflon pestle. Membranes were collected by centrifugation at 30,000×g for 15 min at 4° C. and pellets were resuspended in hypotonic buffer to a final concentration of 1-3 mg/mL. Protein concentrations were determined using the BioRad protein assay reagent with bovine serum albumen as standard. Aliquots of κ receptor membranes were stored at −80° C.
Functional [^35S]GTPγS binding assays were conducted as follows. κ opioid receptor membrane solution was prepared by sequentially adding final concentrations of 0.026 μg/μl κ membrane protein (in-house), 10 μg/mL saponin, 3 μM GDP and 0.20 nM [^35S]GTPγS to binding buffer (100 mM NaCl, 10 mM MgCl2, 20 mM HEPES, pH 7.4) on ice. The prepared membrane solution (190 μl/well) was transferred to 96-shallow well polypropylene plates containing 10 μl of 20× concentrated stock solutions of agonist prepared in DMSO. Plates were incubated for 30 min at a temperature of about 25° C. with shaking. Reactions were terminated by rapid filtration onto 96-well Unifilter GF/B filter plates (Perkin Elmer, Shelton, Conn.) using a 96-well tissue harvester (Packard) and followed by three filtration washes with 200 μl ice-cold binding buffer (10 mM NaH2PO4, 10 mM Na2HPO4, pH 7.4). Filter plates were subsequently dried at 50° C. for 2-3 hours. Fifty μl/well scintillation cocktail (Perkin Elmer, Shelton, Conn.) was added and plates were counted in a Packard Top-Count for 1 min/well.
κ GTP EC50 is the concentration of a compound providing 50% of the maximal response for the compound at a κ receptor.
κ GTP Emax (%) is the maximal effect elicited by a compound relative to the effect elicited by U69,593.
as §4, with “In” for “The following tables provide results on the efficacy of binding and activity response of exemplified Compounds of the Invention at the μ- and κ-opioid receptors. In”

`CCS(=O)(=O)N[C@H]1C[C@@]2(O)[C@H]3Cc4ccc(O)cc4[C@@]2(CCN3CC2CC2)CC1=O` [Compound 42, N-((4bR,7S,8aS,9R)-11-(cyclopropylmethyl)-3,8a-dihydroxy-6-oxo-6,7,8,8a,9,10-hexahydro-5H-9,4b-(epiminoethano)phenanthren-7-yl)ethanesulfonamide] was tested, and the EC50 (μ-opioid receptors [1]) was greater than 200000 nM and the Emax (μ-opioid receptors [1]) was 5.5%.

Compound `O=C1C[C@]23CCN(CC4CC4)[C@H](Cc4ccc(O)cc42)[C@]3(O)C[C@@H]1NS(=O)(=O)c1ccccc1` [Compound 43, N-((4bR,7S,8aS,9R)-11-(cyclopropylmethyl)-3,8a-dihydroxy-6-oxo-6,7,8,8a,9,10-hexahydro-5H-9,4b-(epiminoethano)phenanthren-7-yl)benzenesulfonamide] has an EC50 (μ-opioid receptors [1]) greater than 200000 nM and an Emax (μ-opioid receptors [1]) of 0%.

With `CC(C)(C)C[C@H]1C[C@@]2(O)[C@H]3Cc4ccc(O)cc4[C@@]2(CCN3CC2CC2)CC1=O` [Compound 68, (4bR,7S,8aS,9R)-11-(cyclopropylmethyl)-3,8a-dihydroxy-7-neopentyl-8,8a,9,10-tetrahydro-5H-9,4b-(epiminoethano)phenanthren-6(7H)-one] the EC50 (μ-opioid receptors [2]) was greater than 200000 nM, the Emax (μ-opioid receptors [2]) was 3% and the EC50 (κ opioid receptor) was 20.5 ± 0.4 nM. It also gave an Emax (κ opioid receptor) of 69 ± 3.21%.

Compound `CC(C)C[C@H]1C[C@@]2(O)[C@H]3Cc4ccc(O)cc4[C@@]2(CCN3CC2CC2)CC1=O` [Compound 69, (4bR,7S,8aS,9R)-11-(cyclopropylmethyl)-3,8a-dihydroxy-7-isobutyl-8,8a,9,10-tetrahydro-5H-9,4b-(epiminoethano)phenanthren-6(7H)-one] has an EC50 (μ-opioid receptors [2]) greater than 200000 nM, an Emax (μ-opioid receptors [2]) of 2% and an EC50 (κ opioid receptor) of 9.52 ± 1.41 nM. It also gave an Emax (κ opioid receptor) of 95.2 ± 1.89%.

In the case of `O=C1C[C@]23CCN(CC4CC4)[C@H](Cc4ccc(O)cc42)[C@]3(O)C[C@@H]1CC1CCCCC1` [Compound 70, (4bR,7S,8aS,9R)-7-(cyclohexylmethyl)-11-(cyclopropylmethyl)-3,8a-dihydroxy-8,8a,9,10-tetrahydro-5H-9,4b-(epiminoethano)phenanthren-6(7H)-one], the EC50 (μ-opioid receptors [2]) is reported as greater than 200000 nM, the Emax (μ-opioid receptors [2]) is reported as 3.5% and the EC50 (κ opioid receptor) is reported as 4.01 ± 0.47 nM. For the same compound, the Emax (κ opioid receptor) was 106 ± 3.8%.

`O=C1C[C@]23CCN(CC4CC4)[C@H](Cc4ccc(O)cc42)[C@]3(O)C[C@@H]1Cc1ccccc1` [Compound 71, (4bR,7S,8aS,9R)-7-benzyl-11-(cyclopropylmethyl)-3,8a-dihydroxy-8,8a,9,10-tetrahydro-5H-9,4b-(epiminoethano)phenanthren-6(7H)-one] showed an EC50 (μ-opioid receptors [2]) of 6.76 ± 1.73 nM, an Emax (μ-opioid receptors [2]) of 17.7 ± 0.88% and an EC50 (κ opioid receptor) of 5.6 ± 0.72 nM. For the same compound, the Emax (κ opioid receptor) was 109 ± 5.45%.

With `C[C@H](NC(=O)C[C@H]1C[C@@]2(O)[C@H]3Cc4ccc(O)cc4[C@@]2(CCN3C)CC1=O)C(=O)O` [Compound 75, (2-((4bR,7R,8aS,9R)-3,8a-dihydroxy-11-methyl-6-oxo-6,7,8,8a,9,10-hexahydro-5H-9,4b-(epiminoethano)phenanthren-7-yl)acetyl)-L-alanine] the EC50 (μ-opioid receptors [2]) was 1150 ± 103 nM, the Emax (μ-opioid receptors [2]) was 95 ± 1.53% and the EC50 (κ opioid receptor) was 16600 ± 1190 nM. For the same compound, the Emax (κ opioid receptor) was 66.7 ± 1.2%.

`COc1ccc2c(c1)[C@]13CCN(C)[C@H](C2)[C@]1(O)C[C@H](CC(=O)N1CCCCC1)C(=O)C3` [Compound 76, (4bR,7R,8aS,9R)-8a-hydroxy-3-methoxy-11-methyl-7-(2-oxo-2-(piperidin-1-yl)ethyl)-8,8a,9,10-tetrahydro-5H-9,4b-(epiminoethano)phenanthren-6(7H)-one] was tested, and the EC50 (μ-opioid receptors [2]) was 16700 ± 2270 nM, the Emax (μ-opioid receptors [2]) was 61.7 ± 1.86% and the EC50 (κ opioid receptor) was greater than 200000 nM. It also gave an Emax (κ opioid receptor) of 47.7 ± 2.19%.

In the case of `COc1ccc2c(c1)[C@]13CCN(C)[C@H](C2)[C@]1(O)C[C@H](CC(=O)N1CCCC1)C(=O)C3` [Compound 77, (4bR,7R,8aS,9R)-8a-hydroxy-3-methoxy-11-methyl-7-(2-oxo-2-(pyrrolidin-1-yl)ethyl)-8,8a,9,10-tetrahydro-5H-9,4b-(epiminoethano)phenanthren-6(7H)-one], the EC50 (μ-opioid receptors [2]) is reported as 17600 ± 3650 nM, the Emax (μ-opioid receptors [2]) is reported as 77 ± 2.08% and the EC50 (κ opioid receptor) is reported as greater than 200000 nM. It also gave an Emax (κ opioid receptor) of 49 ± 9.45%.

Work on `COc1ccc2c(c1)[C@]13CCN(C)[C@H](C2)[C@]1(O)C[C@H](CC(=O)N1CCC(O)CC1)C(=O)C3` [Compound 78, (4bR,7R,8aS,9R)-8a-hydroxy-7-(2-(4-hydroxypiperidin-1-yl)-2-oxoethyl)-3-methoxy-11-methyl-8,8a,9,10-tetrahydro-5H-9,4b-(epiminoethano)phenanthren-6(7H)-one] yielded an EC50 (μ-opioid receptors [2]) of 10400 ± 4810 nM, an Emax (μ-opioid receptors [2]) of 36.7 ± 9.17% and an EC50 (κ opioid receptor) greater than 200000 nM. For the same compound, the Emax (κ opioid receptor) was 53.3 ± 1.45%.

`COc1ccc2c(c1)[C@]13CCN(C)[C@H](C2)[C@]1(O)C[C@H](CC(=O)N1CCOCC1)C(=O)C3` [Compound 79, (4bR,7R,8aS,9R)-8a-hydroxy-3-methoxy-11-methyl-7-(2-morpholino-2-oxoethyl)-8,8a,9,10-tetrahydro-5H-9,4b-(epiminoethano)phenanthren-6(7H)-one] was tested, and the EC50 (μ-opioid receptors [2]) was 11700 ± 3620 nM, the Emax (μ-opioid receptors [2]) was 60 ± 10.2% and the EC50 (κ opioid receptor) was greater than 200000 nM. For the same compound, the Emax (κ opioid receptor) was 51 ± 0.58%.

Compound `CN1CC[C@]23CC(=O)[C@@H](CC(=O)N4CCCCC4)C[C@@]2(O)[C@H]1Cc1ccc(O)cc13` [Compound 80, (4bR,7R,8aS,9R)-3,8a-dihydroxy-11-methyl-7-(2-oxo-2-(piperidin-1-yl)ethyl)-8,8a,9,10-tetrahydro-5H-9,4b-(epiminoethano)phenanthren-6(7H)-one] has an EC50 (μ-opioid receptors [2]) of 581 ± 22.1 nM, an Emax (μ-opioid receptors [2]) of 74 ± 0.58% and an EC50 (κ opioid receptor) of 1200 ± 114 nM. The Emax (κ opioid receptor) was 43 ± 1.73%.

With `CN1CC[C@]23CC(=O)[C@@H](CC(=O)N4CCC(O)CC4)C[C@@]2(O)[C@H]1Cc1ccc(O)cc13` [Compound 81, (4bR,7R,8aS,9R)-3,8a-dihydroxy-7-(2-(4-hydroxypiperidin-1-yl)-2-oxoethyl)-11-methyl-8,8a,9,10-tetrahydro-5H-9,4b-(epiminoethano)phenanthren-6(7H)-one] the EC50 (μ-opioid receptors [2]) was 1000 ± 276 nM, the Emax (μ-opioid receptors [2]) was 84.3 ± 3.84% and the EC50 (κ opioid receptor) was 6510 ± 1190 nM. For the same compound, the Emax (κ opioid receptor) was 34 ± 2.65%.

Compound `CC(C)CNC(=O)C[C@H]1C[C@@]2(O)[C@H]3Cc4ccc(O)cc4[C@@]2(CCN3C)CC1=O` [Compound 82, 2-((4bR,7R,8aS,9R)-3,8a-dihydroxy-11-methyl-6-oxo-6,7,8,8a,9,10-hexahydro-5H-9,4b-(epiminoethano)phenanthren-7-yl)-N-isobutylacetamide] has an EC50 (μ-opioid receptors [1]) of 2330 ± 200 nM and an Emax (μ-opioid receptors [1]) of 67.8 ± 4.01%.

Compound `CN1CC[C@]23CC(=O)[C@@H](CC(=O)NCc4ccccc4)C[C@@]2(O)[C@H]1Cc1ccc(O)cc13` [Compound 83, N-benzyl-2-((4bR,7R,8aS,9R)-3,8a-dihydroxy-11-methyl-6-oxo-6,7,8,8a,9,10-hexahydro-5H-9,4b-(epiminoethano)phenanthren-7-yl)acetamide] has an EC50 (μ-opioid receptors [1]) of 456 ± 36.7 nM and an Emax (μ-opioid receptors [1]) of 75 ± 5.51%.
